For 45 molecules, LC retention time results are on record in the RepoRT retention time repository (doi:10.1016/j.foodchem.2018.11.056).

A short description of the series: RP, Thermo Scientific Hypersil GOLD aQ, 100 × 2.1 mm, 1.9 µm, 30 °C, 0.3 mL/min, estimated dead time 0.73 min; A: water + 0.1% formic acid; B: methanol + 0.1% formic acid + 4 mM ammonium formate; gradient (min/%B) 0/0 1/0 8/100 10/100. The settings on record: stereoisomer not certain.

As to `CC(C)(O)C1OC2CCC3(C)C(O)(CCC4Cc5c([nH]c6ccccc56)C43C)C2=CC1=O` (stereo not given), the LC retention time is 7.81 min.

For `COCC1OC(=O)c2coc3c2C1(C)C1=C(C3=O)C2CCC(=O)C2(C)CC1OC(C)=O` (stereo not given), the LC retention time was 6.14 min.

Consider `CC1=CC2OC3C(O)C(O)C(C)(C34CO4)C2(CO)C(O)C1=O` (stereo not given), for which the LC retention time is 3.7 min.

On to `CC(C)CC1NC(=O)C(C)N(C)C(=O)CNC(=O)C(=Cc2ccccc2)N(C)C1=O` (stereo not given), for which the LC retention time was 6.66 min.

`CC1CCCC(=O)CCCCCc2cc(O)cc(O)c2C(=O)O1` (stereo not given): the LC retention time is 7.1 min.

On to `CC1=CC2OC3C(OC4OC(CO)C(O)C(O)C4O)CC(C)(C34CO4)C2(CO)C(O)C1=O` (stereo not given), for which the LC retention time is 4.29 min.

As to `O=C1C=C2C(=CCOC2O)O1` (stereo not given), the LC retention time was 2.12 min.

Take `CCCCC(C)C(OC(=O)CC(CC(=O)O)C(=O)O)C(CC(C)CC(O)CCCCCCC(O)C(C)N)OC(=O)CC(CC(=O)O)C(=O)O` (stereo not given): the LC retention time is 6.99 min.

Consider `C=C1C2OC3C=C(C)C(=O)C(O)C3(CO)C1(C)CC2O` (stereo not given), for which the LC retention time is 4.77 min.

For `CC1=CC2OC3C(O)C(O)C(C)(C2(CO)CC1OC(=O)CC(C)C)C31CO1` (stereo not given), the LC retention time is 6.17 min.

With `CC(C)CC1C(=O)N2CCCC2C2(O)OC(NC(=O)C3C=C4c5cccc6[nH]cc(c56)CC4N(C)C3)(C(C)C)C(=O)N12` (stereo not given), the LC retention time is 6.5 min.

For `CC(C)CC1C(=O)N2CCCC2C2(O)OC(C)(NC(=O)C3C=C4c5cccc6[nH]cc(c56)CC4N(C)C3)C(=O)N12` (stereo not given), the LC retention time was 6.11 min.

On to `C=CC(C)(C)C12CC3C(=O)NC(=Cc4cnc[nH]4)C(=O)N3C1Nc1ccccc12` (stereo not given), for which the LC retention time was 6.61 min.

Turning to `COc1cc2c(c3oc(=O)c4c(c13)CCOC4=O)C1CCOC1O2` (stereo not given), the LC retention time was 5.8 min.

In the case of `COc1cc(=O)oc(C=CC=CC=CC(C)=CC2(C)OC(C)C(C)(O)C2O)c1C` (stereo not given), the LC retention time was 7.23 min.

Turning to `COc1cc2c(c3oc(=O)c4c(c13)CCC4=O)C1(O)C=COC1O2` (stereo not given), the LC retention time is 5.77 min.

`CC1=C2C(=COC(C)C2C)C(=O)C(C(=O)O)=C1O` (stereo not given): the LC retention time was 6.53 min.

`CC1=CC2OC3C(O)CC(C)(C34CO4)C2(CO)C(O)C1=O` (stereo not given): the LC retention time is 4.26 min.

`COc1ccc2c3c4n(c2c1)C(C=C(C)C)OOC(C)(C)CC4N1C(=O)C2CCCN2C(=O)C1(O)C3O` (stereo not given): the LC retention time is 7.33 min.

With `CC1Cc2ccc(C(=O)NC(Cc3ccccc3)C(=O)O)c(O)c2C(=O)O1` (stereo not given), the LC retention time was 6.78 min.

For `COc1c(C)c2c(c(O)c1CC=C(C)CCC(=O)O)C(=O)OC2`, the LC retention time was 6.77 min.

Take `CC(=O)OCC12CC(OC(=O)CC(C)C)C(C)=CC1OC1C(O)C(OC(C)=O)C2(C)C12CO2` (stereo not given): the LC retention time is 6.78 min.

In the case of `CCCCC(C)C(OC(=O)CC(CC(=O)O)C(=O)O)C(CC(C)CCCCCCC(O)CC(O)C(C)N)OC(=O)CC(CC(=O)O)C(=O)O` (stereo not given), the LC retention time is 7.19 min.

In the case of `CC(=O)OCC12CC(O)C(C)=CC1OC1C(O)C(OC(C)=O)C2(C)C12CO2` (stereo not given), the LC retention time is 4.9 min.

`CC(=O)OC1C(O)C2OC3C=C(C)C(=O)C(O)C3(CO)C1(C)C21CO1` (stereo not given): the LC retention time was 4.69 min.

Turning to `Cc1cc(O)cc2oc(=O)c3c(O)cc(O)cc3c12`, the LC retention time is 6.89 min.

With `O=c1cc(CO)occ1O`, the LC retention time was 2.6 min.

Turning to `CC(C)C1(NC(=O)C2CC3c4cccc5[nH]cc(c45)CC3N(C)C2)OC2(O)C3CCCN3C(=O)C(Cc3ccccc3)N2C1=O` (stereo not given), the LC retention time was 6.46 min.

`COc1cc2c(c3oc(=O)c4c(c13)CCC4=O)C1C=COC1O2` (stereo not given): the LC retention time is 6.26 min.

Consider `CC1CCCC(O)CCCCCc2cc(O)cc(O)c2C(=O)O1` (stereo not given), for which the LC retention time was 6.88 min.

Turning to `COc1cc2c(c3oc(=O)c4c(c13)CCOC4=O)C1C=COC1O2` (stereo not given), the LC retention time was 5.89 min.

Consider `COc1cc2c(c3oc4cccc(O)c4c(=O)c13)C1C=COC1O2` (stereo not given), for which the LC retention time was 7.49 min.

For the molecule `CC1=CC2OC3C(O)C(O)C(C)(C2(CO)CC1O)C31CO1` (stereo not given), the LC retention time was 3.76 min.

`COc1cc2c(c3oc(=O)c4c(c13)CCC4=O)C1CCOC1O2` (stereo not given): the LC retention time was 6.11 min.

On to `CC(=O)OCC12CC(OC(=O)CC(C)C)C(C)=CC1OC1C(O)C(O)C2(C)C12CO2` (stereo not given), for which the LC retention time is 6.52 min.

For `CN1C(=O)C23CC4=CC=CC(O)C4N2C(=O)C1(CO)SS3` (stereo not given), the LC retention time was 5.48 min.

For the molecule `C=CC(C)(C)C12C=C(O)C(=O)N3C(=Cc4cnc[nH]4)C(=O)NC31N(OC)c1ccccc12` (stereo not given), the LC retention time was 6.11 min.

`CC(=O)OCC12C(C=C(C)C(=O)C1O)OC1C(O)CC2(C)C12CO2` (stereo not given): the LC retention time was 5.25 min.

As to `CC1CCCC(=O)CCCC=Cc2cc(O)cc(O)c2C(=O)O1` (stereo not given), the LC retention time is 7.16 min.

As to `CC(C)C1(NC(=O)C2C=C3c4cccc5[nH]cc(c45)CC3N(C)C2)OC2(O)C3CCCN3C(=O)C(Cc3ccccc3)N2C1=O` (stereo not given), the LC retention time is 6.55 min.

As for `CC1CCC2C(C)(C)C(O)CCC2(C)C12Cc1c(O)cc3c(c1O2)CNC3=O` (stereo not given), the LC retention time is 7.51 min.

As to `CC(=O)OC1CC2(C)C3(CO3)C1OC1C=C(C)C(=O)C(O)C12CO` (stereo not given), the LC retention time is 5.49 min.

In the case of `CCCCC(C)C(OC(=O)CC(CC(=O)O)C(=O)O)C(CC(C)CC(O)CCCCC(O)CC(O)C(C)N)OC(=O)CC(CC(=O)O)C(=O)O` (stereo not given), the LC retention time is 6.81 min.

With `CC1=CC2c3cccc4[nH]cc(c34)CC2N(C)C1` (stereo not given), the LC retention time is 5.35 min.

Turning to `COC1C(OC(=O)C=CC=CC=CC=CC(=O)O)CCC2(CO2)C1C1(C)OC1CC=C(C)C` (stereo not given), the LC retention time is 7.52 min.
